Reference: patent US5705693A, “Cationic lipids” (Gilead Sciences, Inc., priority 1995, dated 1998)
Where two headings read alike, the source gives them in different places.

Legend:
CV-1 cells [1] = experiment: Transfection of CV-1 cells with 30/ODN1 (Example 8); format: cell-based, African green monkey; conditions: for % CV-1 transfected: 18 h, 500 pmole ODN1
Description: (§1) Preparation of lipid-nucleic acid complexes and cell transfection.
(§2) The toxicity noted for HL60 cells may have been at least partly due to the high level of ODN1 that was delivered to the cells.

A10 cells = experiment: Transfection of A10 cells with ODN1 (Example 6); format: cell-based, rat; conditions: 18 h, 10% FBS; for cells transfected A10: 15 μg/mL lipid, 1:1 DOPE, 250 pmole ODN1; for toxicity to A10 cells / transfection of A10 in the presence of serum: in words
Description: as §1
Cells at about 50-100% confluency were used.

cells [2] = experiment: Amount of fluorescently labeled oligonucleotide delivered versus commercially available lipids; format: cell-based; conditions: observed fluorescence intensity, estimated
Description: The difference in transfection efficiency between lipids described herein and commercially available lipids is usually most pronounced when the transfections are done in the presence of medium containing serum. The amount of polyanion delivered into cells was estimated to be about 2- to 100-fold greater for lipids 30, 34 and 35 based on the observed fluorescence intensity of transfected cells after transfection using a fluorescently labeled oligonucleotide. The cationic lipids described herein also transfect some cell types that are not detectably transfected by commercial lipids, particularly where the transfection is conducted in the presence of serum.

NHEK cells = experiment: Transfection of NHEK cells with ODN1 (Example 10); format: cell-based, human; conditions: for % NHEK transfected: DMEM, 24 h
Description: as §1

SK-OV-3 cells = experiment: Transfection of SK-OV-3 cells with ODN1 in 40% or 80% FBS (Example 7); format: cell-based, human; conditions: for % SK-OV-3 transfected: 18 h, 500 pmole ODN1, 1:1 DOPE
Description: as §1
80% serum approximates the serum protein and ion conditions that exist in vivo in mammalian circulation. 30 is thus suitable for transfecting cells under physiological conditions.

HUVEC cells = experiment: Transfection of HUVEC cells with ODN1 (Example 9); format: cell-based, human; conditions: for % HUVEC transfected: 10% serum, 5 h, 500 pmole ODN1
Description: as §1

CV-1 cells [3] = experiment: Transfection of CV-1 cells with ODN1 and toxicity (Example 6); conditions: 18 h, 10% FBS; for cells transfected CV-1: 15 μg/mL lipid, 1:1 DOPE, 250 pmole ODN1
Method: (§4) Preparation of lipid-nucleic acid complexes and cell transfection. Lipids were prepared for complexing with nucleic acids by drying a cationic lipid-colipid mixture in CHCl3 under argon. The molar ratio of cationic lipid to colipid was adjusted by adding appropriate amounts of each lipid in CHCl3 together prior to drying. Usually 10 mL of water was added to a 100 mL round bottom flask containing a dried film of lipid and colipid. The lipids consisted of a mixture of an invention cationic lipid and the colipid DOPE (dioleylphosphatidylethanolamine). Sterile-filtered water or a low ionic strength aqueous buffer such as physiological saline, TE (10 mM tris, 1 mM EDTA, pH 7-8) or Ringer's solution was then added to the dried lipids to obtain a lipid suspension at 1 mg lipid/mL followed by a 10 minute bath sonication (Ultra Sonik 100, NEY) at room temperature to suspend the lipids in the flask. The suspended lipids (10 mL) were then sonicated 5 times for 15 seconds per sonication at 0°-4° C. with about 30-60 seconds between pulses. Sonication was usually conducted in a 15 mL polypropylene culture tube. A probe sonicator (Sonifier 250, Branson Ultrasonics) was used at maximum power for the ice bath sonication and for each 15 second pulse. The lipid suspension was optionally filtered or centrifuged (2000 rpm, 10 minutes at 0-4° C.) to remove large particulate matter and the resulting lipid suspensions were kept at 4° C. until used.
(§5) Lipid nucleic acid complexes were prepared by mixing (a) 10% v/v (usually 100 μL) oligonucleotide in Optimem™ (Bethesda Research Labs, Inc.) at room temperature (about 19°-24° C.) with (b) 10% v/v lipid suspension in Optimem™ at room temperature and allowing the mixture to stand for about 15 minutes, followed by adding (c) 80% v/v Optimem™ without serum or 80% v/v tissue culture medium (Modified Essential Medium (MEM), Dulbecco's Modified Eagle's Medium (DMEM), etc. containing 0-80% fetal bovine serum (Hyclone, Inc.). The lipid and nucleic acid solutions could also be prepared using DMEM without serum, a low ionic strength (less than about 200 mM total ion concentration) aqueous medium lacking phosphate (TE, etc) or water in place of Optimem™. Typically, 100 μL each of Optimem™ containing oligonucleotide (100-500 pmole) and Optimem™ containing added lipid was mixed with 800 μL of serum free Optimem™ or with 800 μL of tissue culture medium containing 10-80% FBS. Generally, 5 or 10 μL (5 or 10 μg) of lipid was added to 95 or 90 μL of Optimem™ to give a final 1 mL transfection preparation containing 5 or 10 μg of lipid and 250 pmole of oligonucleotide. The lipid-nucleic acid mixture was held at room temperature for about 15 min hours before adding medium to give the final transfection preparation volume (usually 1 mL) and warming to 37° C. and immediately applying onto the cells. The transfection mixture was left on the cells for 2 to 24 hours (at 37° C.), with a 6 hour time period commonly used.
(§6) Cells were typically transfected using 1 mL of transfection mixture per well in a 6-well plate. Cells at about 50-100% confluency were used. […] Typical transfections with the invention lipids used cells at about 60-100% confluency.

cells [4] = experiment: Transfection with filtered preparations; format: cell-based; conditions: 1:1 DOPE, sonicated
Method: The invention cationic lipids 30 or 34 and DOPE colipid (1:1) were prepared by sonication and then filtered using 200, 100 or 50 nm filters to obtain particles less than about 200 nm in diameter, less than about 100 nm and less than about 50 nm. […] The 50 nm filtered preparations were about 40-50% as efficient as the preparations containing larger particles. The size of the particles or miscelles in a given preparation will vary depending on the preparation method. Sonicating cationic lipid-colipid mixtures will provide smaller miscelles and vortexing will provide larger miscelles (Felgner J. Biol. Chem. (1994) 269:2550-2561). Such miscelles are believed to transfer the polyanion into the cytoplasm of a eukaryotic or prokaryotic cell by pinocytosis, endocytosis and/or by direct fusion with the plasma membrane.

ECl cells = experiment: Transfection of ECl cells with ODN1 (Example 10); format: cell-based, human; conditions: for % ECl transfected: DMEM
Description: as §1

L7 cells = experiment: Transfection of L7 cells with ODN1 (Example 11); format: cell-based, murine; conditions: for % L7 transfected: 20% FBS, 18 h, 250 pmole ODN1
Description: as §1

CV-1 cells [5] = tested on: CV-1 cells
Method: as §4, §5, §6

HL60 cells = experiment: Transfection of HL60 cells with 30/ODN1 (Example 8); format: cell-based, human; conditions: for % HL60 transfected: 500 pmole ODN1
Description: as §1, §2

CV-1 cells [6] = experiment: Transfection of CV-1 cells with ODN1 and toxicity (Example 22); format: cell-based, African green monkey; conditions: 2:1 DOPE, 6 h, 10% FBS, 250 pmole ODN1
Method: (§3) Lipids 35, 52, 54 and 55 were each prepared using a 2:1 lipid:DOPE molar ratio as follows. Two molar equivalents of each lipid in CHCl3 and one equivalent of DOPE in CHCl3 was dried under reduced pressure by rotovap at room temperature. Deionized water was then added to give 1 mg/mL of total lipid. 10 mL of water containing 10 mg of lipid was vortexed for 5 minutes in a 100 mL round bottom flask. 2 mL aliquots were then used to prepare lipid suspensions for complexing with ODN1. Each preparation was obtained by 6 cycles of freezing on dry ice and thawing in a 37° C. water bath.

cdc-2 kinase = experiment: cdc-2 antisense oligonucleotide analog transfection, Western blot (Example 22); format: cell-based, African green monkey; conditions: 30 nM cdc-2 antisense oligonucleotide analog, 2.5 and 5.0 μg lipid
Description: The oligonucleotide contained 5-(1-propynyl)cytosine in place of cytosine and 5-(1-propynyl)uracil in place of uracil. A control oligonucleotide analog having a mismatched base sequence was also used to check for any non-specific effect on cdc-2 kinase levels in the transfected cells caused by the oligonucleotide analog. A control containing only lipid was also used as a control. […] Protein levels were examined by Western blot analysis.

[7] = Transfection of CV-1 cells with ODN1 and toxicity (Example 22); format: cell-based, African green monkey; conditions: monkey, cv-1 cells; 10.0 μg lipid
Method: as §3

[8] = fluorescence observation, in words

## CCCCCCCCCCCCCCCCCCN(CCCCCCCCCCCCCCCCCC)C(=O)CNC(=O)[C@@H](N)CCCN.Cl.Cl [Compound 30]
CV-1 cells [1]; 2.5 μg/mL, 10% serum
  % CV-1 transfected: 90%
CV-1 cells [1]; 5 μg/mL, 10% serum
  % CV-1 transfected: > 95%
CV-1 cells [1]; 10 μg/mL, 10% serum
  % CV-1 transfected: > 95%
CV-1 cells [1]; 15 μg/mL, 10% serum
  % CV-1 transfected: > 95%
CV-1 cells [1]; 20 μg/mL, 50% serum
  % CV-1 transfected: 95%
CV-1 cells [1]; 20 μg/mL, 80% serum
  % CV-1 transfected: 90%
CV-1 cells [1]; in words
  transfection of CV-1 at reduced levels of lipid: efficiently transfected
A10 cells
  cells transfected A10: 95
  toxicity to A10 cells: little or no toxicity
  transfection of A10 in the presence of serum: efficiently transfected
Cells [2]
  amount of polyanion delivered into cells relative to commercially available lipids: 2- to 100 fold
NHEK cells; 1 μg/mL lipid, second series
  % NHEK transfected: 25%
NHEK cells; 2.5 μg/mL lipid, second series
  % NHEK transfected: 50%
NHEK cells; 5 μg/mL lipid, first series
  % NHEK transfected: 80-90%
NHEK cells; 5 μg/mL lipid, second series
  % NHEK transfected: 60-70%
NHEK cells; 10 μg/mL lipid, first series
  % NHEK transfected: 70%
NHEK cells; 10 μg/mL lipid, second series
  % NHEK transfected: 60-70%
NHEK cells; 20 μg/mL lipid, first series
  % NHEK transfected: 60%
NHEK cells; [8]
  level of ODN1 delivered into NHEK cells: high levels
NHEK cells; in words
  toxicity NHEK: little to moderate toxicity
  transfection of NHEK: efficiently transfected
SK-OV-3 cells; 40% serum
  % SK-OV-3 transfected: 76%
SK-OV-3 cells; 80% serum
  % SK-OV-3 transfected: 72%
SK-OV-3 cells; in words
  transfection of SK-OV-3 in the presence of serum: efficiently transfected
HUVEC cells; 5 μg/mL lipid
  % HUVEC transfected: 1%
HUVEC cells; 10 μg/mL lipid
  % HUVEC transfected: 5%
HUVEC cells; in words
  transfection of HUVEC: modest efficiency
CV-1 cells [3]
  cells transfected CV-1: 85
CV-1 cells [3]; in words
  transfection of CV-1 in the presence of serum: efficiently transfected
Cells [4]; 50 nm filter
  transfection efficiency of 50 nm filtered preparations relative to larger particles: 40-50%
Cells [4]; in words
  transfection efficiency of 200 nm or 100 nm filtered preparations: the most efficient (and equally efficient)
ECl cells; 2.5 μg/mL lipid, 5 hour transfection
  % ECl transfected: 10%
ECl cells; 5 μg/mL lipid, 5 hour transfection
  % ECl transfected: 25-30%
ECl cells; 5 μg/mL lipid, 6 hour transfection
  % ECl transfected: 30%
ECl cells; 10 μg/mL lipid, 5 hour transfection
  % ECl transfected: 51%
ECl cells; 10 μg/mL lipid, 6 hour transfection
  % ECl transfected: 43%
ECl cells; 15 μg/mL lipid, 5 hour transfection
  % ECl transfected: 70%
ECl cells; 20 μg/mL lipid, 6 hour transfection
  % ECl transfected: 20%
ECl cells; [8]
  level of ODN1 delivered into ECl cells: high levels
ECl cells; in words
  toxicity ECl: little to moderate toxicity
  transfection of ECl: efficiently transfected
L7 cells; 2.5 μg/mL lipid
  % L7 transfected: 10%
L7 cells; 5 μg/mL lipid
  % L7 transfected: 30%
L7 cells; 10 μg/mL lipid
  % L7 transfected: 60%
L7 cells; in words
  toxicity L7: little or no toxicity
  transfection of L7: efficiently transfected
CV-1 cells [5]
  toxicity to CV-1 cells: little or no toxicity
HL60 cells; 20 μg/mL, 0% serum, 5 h
  % HL60 transfected: 77%
HL60 cells; 20 μg/mL, 10% serum, 5 h
  % HL60 transfected: 76%
HL60 cells; 20 μg/mL, 10% serum, 5 h, footnote
  toxicity HL60: significant toxicity noted
HL60 cells; in words
  transfection of HL60: efficiently transfected

## CCCCCCCCCCCCCCCCCCN(CCCCCCCCCCCCCCCCCC)C(=O)CCC(=O)NCCCN1CCN(CCCN)CC1 [Compound 38]
A10 cells
  cells transfected A10: 85
  toxicity to A10 cells: little or no toxicity
  transfection of A10 in the presence of serum: efficiently transfected
SK-OV-3 cells; 40% serum
  % SK-OV-3 transfected: < 10%
SK-OV-3 cells; 80% serum
  % SK-OV-3 transfected: 0%
CV-1 cells [3]
  cells transfected CV-1: 70
CV-1 cells [3]; in words
  toxicity to CV-1 cells: little or no toxicity
  transfection of CV-1 in the presence of serum: efficiently transfected

## CCCCCCCCCCCCNC(=O)CCC(=O)NCCCN1CCN(CCCN)CC1 [Compound 44]
A10 cells
  cells transfected A10: < 10
CV-1 cells [3]
  cells transfected CV-1: < 5

## CCCCCCCCCCCCCCN(CCCCCCCCCCCCCC)C(=O)CNC(=O)C(N)CCCNC(=N)NC(C)=O.Cl.Cl (centres unmarked) [Compound 52]
CV-1 cells [6]; 1 μg lipid
  % cells transfected: 30-40%
CV-1 cells [6]; 2.5 μg lipid
  % cells transfected: 60%
CV-1 cells [6]; 5.0 μg lipid
  % cells transfected: 60%
CV-1 cells [6]; 10.0 μg lipid
  % cells transfected: 60%

## CCCCCCCCCCCCCCN(CCCCCCCCCCCCCC)C(=O)CNC(=O)C(N)CCCNC(=N)NC(=O)OC(C)C.Cl.Cl (centres unmarked) [Compound 53]
cdc-2 kinase
  cdc-2 protein levels: efficiently reduced cdc-2 protein levels
CV-1 cells [6]; 1 μg lipid
  % cells transfected: 30%
CV-1 cells [6]; 2.5 μg lipid
  % cells transfected: 70%
CV-1 cells [6]; 5.0 μg lipid
  % cells transfected: 100%
CV-1 cells [6]; 10.0 μg lipid
  % cells transfected: 60%

## CCCCCCCCCCCCCCN(CCCCCCCCCCCCCC)C(=O)CNC(=O)C(N)CCCNC(=N)NC(=O)C(C)(C)C.Cl.Cl (centres unmarked) [Compound 54]
CV-1 cells [6]; 1 μg lipid
  % cells transfected: 10-20%
CV-1 cells [6]; 2.5 μg lipid
  % cells transfected: 30-40%
CV-1 cells [6]; 5.0 μg lipid
  % cells transfected: 70-80%
CV-1 cells [6]; 10.0 μg lipid
  % cells transfected: 40%

## CCCCCCCCCCCCCCN(CCCCCCCCCCCCCC)C(=O)CNC(=O)[C@@H](N)CCCNC(=N)N [Compound 55]
cdc-2 kinase
  cdc-2 protein levels: efficiently reduced cdc-2 protein levels
[7]
  cytotoxicity at 6 h: > 40%
CV-1 cells [6]; 1 μg lipid
  % cells transfected: 40%
CV-1 cells [6]; 2.5 μg lipid
  % cells transfected: 75%
CV-1 cells [6]; 5.0 μg lipid
  % cells transfected: 100%
CV-1 cells [6]; 10.0 μg lipid
  % cells transfected: 40%
